# From ChEMBL document CHEMBL1123967, “New potent antagonists of leukotrienes C4 and D4. 1. Synthesis and structure-activity relationships” (J Med Chem, 1988)
# How the values were obtained:
# [1] = target: T1, Cysteinyl leukotriene receptor (Homo sapiens, UniProt Q9Y271+Q9NS75); test: Inhibition of LTC4 induced smooth muscle contraction of guinea pig ileum; type: functional, tissue-based, Cavia porcellus; conditions: target entry is the homologue from another species
# T1 sequence (Q9Y271 whole entry): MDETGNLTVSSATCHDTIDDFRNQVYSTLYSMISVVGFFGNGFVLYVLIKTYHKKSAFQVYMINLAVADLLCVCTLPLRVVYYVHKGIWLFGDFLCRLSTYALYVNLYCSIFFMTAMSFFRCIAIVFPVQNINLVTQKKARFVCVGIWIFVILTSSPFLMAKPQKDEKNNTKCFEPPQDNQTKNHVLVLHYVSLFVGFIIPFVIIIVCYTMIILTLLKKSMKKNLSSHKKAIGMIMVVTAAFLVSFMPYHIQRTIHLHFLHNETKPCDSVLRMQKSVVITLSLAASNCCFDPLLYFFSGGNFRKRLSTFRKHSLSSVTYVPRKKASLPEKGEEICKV
# T1 sequence (Q9NS75 whole entry): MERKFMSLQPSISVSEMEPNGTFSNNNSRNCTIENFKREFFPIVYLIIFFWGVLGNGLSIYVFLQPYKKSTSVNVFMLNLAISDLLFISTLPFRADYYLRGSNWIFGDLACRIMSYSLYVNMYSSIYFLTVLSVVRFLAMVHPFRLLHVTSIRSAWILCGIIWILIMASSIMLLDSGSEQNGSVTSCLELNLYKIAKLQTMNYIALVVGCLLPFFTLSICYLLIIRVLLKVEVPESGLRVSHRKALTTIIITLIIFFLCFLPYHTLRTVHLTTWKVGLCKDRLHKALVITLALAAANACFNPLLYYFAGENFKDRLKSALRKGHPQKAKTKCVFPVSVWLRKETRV
# Cavia porcellus [2] = test: Inhibition of LTD4 (5 ng/site) induced vascular permeability in guinea pig skin at dose 10 mg/kg given perorally; type: functional; conditions: route oral
# [3] = target: Cysteinyl leukotriene receptor (Homo sapiens) (UniProt Q9Y271+Q9NS75); test: In vivo inhibition of LTD4-induced bronchoconstriction in anesthetized guinea pig.; type: functional, organism-based; conditions: Cavia porcellus; target entry is the homologue from another species
# Cavia porcellus [4] = test: Inhibition of LTD4 (5 ng/site) induced vascular permeability in guinea pig skin at dose 0.3 mg/kg given perorally; type: functional; conditions: route oral
IC50 [1] [nM],Structure (SMILES),other results
215,CCCCCCCCOc1ccc(/C=C/C(=O)Nc2cccc3c2OC(c2nnn[nH]2)CO3)cc1 (stereo unspecified),
490,CCCc1ccc(/C=C/C(=O)Nc2cccc3c2OC(c2nnn[nH]2)CO3)cc1 (stereo unspecified),
100,CCCCCOc1ccc(C(=O)Nc2cccc3c2OC(c2nnn[nH]2)CO3)cc1 (stereo unspecified),
9,CCCCCCCOc1ccc(C(=O)Nc2cccc3c2OC(c2nnn[nH]2)CO3)cc1 (stereo unspecified),inhibition in vivo at 10 mg/kg (Cavia porcellus [2]): < 46.7%
14,CCCCCCCCOc1ccc(C(=O)Nc2cccc3c2OC(c2nnn[nH]2)CO3)cc1 (stereo unspecified),
21,CCCCCCOc1ccc(/C=C/C(=O)Nc2cccc3c2OC(c2nnn[nH]2)CO3)cc1 (stereo unspecified),
88,CCCCCCCOc1ccc(/C=C/C(=O)Nc2cccc3c2OC(c2nnn[nH]2)CO3)cc1 (stereo unspecified),
140,CCCCCCc1ccc(/C=C/C(=O)Nc2cccc3c2OC(c2nnn[nH]2)CO3)cc1 (stereo unspecified),
220,CCCCc1ccc(/C=C/C(=O)Nc2cccc3c2OC(c2nnn[nH]2)CO3)cc1 (stereo unspecified),
120,CCCCCOc1ccc(/C=C/C(=O)Nc2cccc3c2OC(c2nnn[nH]2)CO3)cc1 (stereo unspecified),
660,CCCOc1ccc(/C=C/C(=O)Nc2cccc3c2OC(c2nnn[nH]2)CO3)cc1 (stereo unspecified),
300,CCCCCCCCCCOc1ccc(C(=O)Nc2cccc3c2OC(c2nnn[nH]2)CO3)cc1 (stereo unspecified),
1.3,C=CCCCCCCOc1ccc(C(=O)Nc2cccc3c2OC(c2nnn[nH]2)CO3)cc1 (stereo unspecified),inhibition in vivo at 10 mg/kg (Cavia porcellus [2]): < 75.2%; ID50 [3]: 0.0017 mg/kg
580,CCCCCCCCc1ccc(/C=C/C(=O)Nc2cccc3c2OC(c2nnn[nH]2)CO3)cc1 (stereo unspecified),
150,CCCCCOc1cccc(/C=C/C(=O)Nc2cccc3c2OC(c2nnn[nH]2)CO3)c1 (stereo unspecified),
1100,CCCCCCCCCCc1ccc(/C=C/C(=O)Nc2cccc3c2OC(c2nnn[nH]2)CO3)cc1 (stereo unspecified),
350,CCCCCCCc1ccc(/C=C/C(=O)Nc2cccc3c2OC(c2nnn[nH]2)CO3)cc1 (stereo unspecified),
13,CCCCCCOc1ccc(C(=O)Nc2cccc3c2OC(c2nnn[nH]2)CO3)cc1 (stereo unspecified),
2300,CCCCCOc1ccccc1/C=C/C(=O)Nc1cccc2c1OC(c1nnn[nH]1)CO2 (stereo unspecified),
20,CCCCCCCCCOc1ccc(C(=O)Nc2cccc3c2OC(c2nnn[nH]2)CO3)cc1 (stereo unspecified),
370,CCCCCc1ccc(/C=C/C(=O)Nc2cccc3c2OC(c2nnn[nH]2)CO3)cc1 (stereo unspecified),ID50 [3]: 0.33 mg/kg
3200,CCCCCCCCCc1ccc(/C=C/C(=O)Nc2cccc3c2OC(c2nnn[nH]2)CO3)cc1 (stereo unspecified),
120,CCCCOc1ccc(/C=C/C(=O)Nc2cccc3c2OC(c2nnn[nH]2)CO3)cc1 (stereo unspecified),

# The next lines start with the molecule.
Structure (SMILES),IC50 [1] [nM],other results
CCCCOc1ccc(C(=O)Nc2cccc3c(=O)cc(-c4nn[nH]n4)oc23)cc1,5,
CCC/C=C/COc1ccc(C(=O)Nc2cccc3c(=O)cc(-c4nn[nH]n4)oc23)cc1,1.5,
CCCCOc1ccc(C(=O)Nc2cccc3c2OC(c2nnn[nH]2)CO3)cc1 (stereo unspecified),220,
CCCCCCCOc1ccc(C(=O)Nc2cccc3c(=O)cc(-c4nn[nH]n4)oc23)cc1,0.5,
O=C(Nc1cccc2c(=O)cc(-c3nn[nH]n3)oc12)c1ccc(OCCCc2ccccc2)cc1,0.96,
CCC/C=C/COc1ccc(C(=O)Nc2cccc3c2OC(c2nnn[nH]2)CO3)cc1 (stereo unspecified),4.3,ID50 [3]: 0.0135 mg/kg
CCCCCCCCCCc1ccc(C(=O)Nc2cccc3c2OC(c2nnn[nH]2)CO3)cc1 (stereo unspecified),500,
CCCCCC/C=C/COc1ccc(C(=O)Nc2cccc3c2OC(c2nnn[nH]2)CO3)cc1 (stereo unspecified),5.2,ID50 [3]: 0.0041 mg/kg
CCCCCc1ccc(/C=C/C(=O)Nc2ccccc2C(=O)O)cc1,14000,ID50 [3]: 4.5 mg/kg
CCCCCCCOc1ccc(/C=C/C(=O)Nc2cccc3c(=O)cc(-c4nn[nH]n4)oc23)cc1,140,
CCCCCCOc1ccc(C(=O)Nc2cccc3c(=O)cc(-c4nn[nH]n4)oc23)cc1,0.86,
CCCCCc1ccc(/C=C/C(=O)Nc2cccc3c2OC(C(=O)O)CO3)cc1 (stereo unspecified),830,ID50 [3]: 0.22 mg/kg
CCCCCCCc1ccc(C(=O)Nc2cccc3c(=O)cc(-c4nn[nH]n4)oc23)cc1,4.2,
CCCCc1ccc(C(=O)Nc2cccc3c2OC(c2nnn[nH]2)CO3)cc1 (stereo unspecified),1500,
CCCCCc1ccccc1C(=O)Nc1cccc2c1OC(c1nnn[nH]1)CO2 (stereo unspecified),40000,
CCCCCCc1ccc(C(=O)Nc2cccc3c2OC(c2nnn[nH]2)CO3)cc1 (stereo unspecified),210,
CCCCCCCCCc1ccc(C(=O)Nc2cccc3c(=O)cc(-c4nn[nH]n4)oc23)cc1,7,
CCCCCCCCCOc1ccc(C(=O)Nc2cccc3c(=O)cc(-c4nn[nH]n4)oc23)cc1,7.4,
CCCCCc1ccc(/C=C/C(=O)Nc2cccc3cc(-c4nn[nH]n4)oc23)cc1,3100,
CCCCCOc1ccc(C(=O)Nc2cccc3c(=O)cc(-c4nn[nH]n4)oc23)cc1,53,
CCCCCc1ccc(/C=C/C(=O)Nc2cccc3ccc(-c4nn[nH]n4)cc23)cc1,300,
CCCCCOc1ccccc1C(=O)Nc1cccc2c1OC(c1nnn[nH]1)CO2 (stereo unspecified),9400,
CCCCCCc1ccc(/C=C/C(=O)Nc2cccc3c(=O)cc(-c4nn[nH]n4)oc23)cc1,32,
CCCCCc1ccc(/C=C/C(=O)Nc2ccccc2CC(=O)O)cc1,20000,
O=C(Nc1cccc2c1OC(c1nnn[nH]1)CO2)c1ccc(OCCCc2ccccc2)cc1 (stereo unspecified),20,
CCCCCc1ccc(/C=C/C(=O)Nc2cccc3c2OC(c2nnn[nH]2)C3)cc1 (stereo unspecified),6900,
CCCCCc1ccccc1/C=C/C(=O)Nc1cccc2c1OC(c1nnn[nH]1)CO2 (stereo unspecified),2150,

Structure (SMILES),IC50 [1] [nM],other results
CCCCCCCCc1ccc(C(=O)Nc2cccc3c2OC(c2nnn[nH]2)CO3)cc1 (stereo unspecified),100,
CC/C=C/COc1ccc(C(=O)Nc2cccc3c2OC(c2nnn[nH]2)CO3)cc1 (stereo unspecified),150,
CCCCCCCc1ccc(/C=C/C(=O)Nc2cccc3c(=O)cc(-c4nn[nH]n4)oc23)cc1,100,
CCCCCCOc1ccc(/C=C/C(=O)Nc2cccc3c(=O)cc(-c4nn[nH]n4)oc23)cc1,18,
CCCCCOc1cccc(C(=O)Nc2cccc3c2OC(c2nnn[nH]2)CO3)c1 (stereo unspecified),5000,
CCCCCCCCOc1ccc(C(=O)Nc2cccc3c(=O)cc(-c4nn[nH]n4)oc23)cc1,5.5,
CCCCc1ccc(/C=C/C(=O)Nc2cccc3c(=O)cc(-c4nn[nH]n4)oc23)cc1,34,
CCCCCc1ccc(/C=C/C(=O)Nc2cccc3c(=O)cc(C(=O)O)oc23)cc1,240,ID50 [3]: 0.32 mg/kg
O=C(Nc1cccc2c1OC(c1nnn[nH]1)CO2)c1ccc(OCCCCCc2ccccc2)cc1 (stereo unspecified),11,
CCCC/C=C/COc1ccc(C(=O)Nc2cccc3c(=O)cc(-c4nn[nH]n4)oc23)cc1,0.031,ID50 [3]: 0.0011 mg/kg
CCCCCc1ccc(C(=O)Nc2cccc3c2OC(c2nnn[nH]2)CO3)cc1 (stereo unspecified),2600,
O=C(Nc1cccc2c1OC(c1nnn[nH]1)CO2)c1ccc(OCCc2ccccc2)cc1 (stereo unspecified),62,
CCCCCC#CCOc1ccc(C(=O)Nc2cccc3c(=O)cc(-c4nn[nH]n4)oc23)cc1,0.14,ID50 [3]: 0.0011 mg/kg
CCCCCc1ccc(/C=C/C(=O)Nc2ccccc2OCc2nn[nH]n2)cc1,3000,ID50 [3]: 0.5 mg/kg
CCCCCC#CCOc1ccc(C(=O)Nc2cccc3c2OC(c2nnn[nH]2)CO3)cc1 (stereo unspecified),0.67,ID50 [3]: 0.0064 mg/kg
C=CCCC/C=C/COc1ccc(C(=O)Nc2cccc3c(=O)cc(-c4nn[nH]n4)oc23)cc1,0.16,inhibition in vivo at 0.3 mg/kg (Cavia porcellus [4]): < 44.6%; ID50 [3]: 0.0012 mg/kg
CCCCCc1ccc(C(=O)Nc2cccc3c(=O)cc(-c4nn[nH]n4)oc23)cc1,180,
CCCCCCCc1ccc(C(=O)Nc2cccc3c2OC(c2nnn[nH]2)CO3)cc1 (stereo unspecified),70,
CCCCCCCCc1ccc(C(=O)Nc2cccc3c(=O)cc(-c4nn[nH]n4)oc23)cc1,5.5,
CCCCCCc1ccc(C(=O)Nc2cccc3c(=O)cc(-c4nn[nH]n4)oc23)cc1,15,
CCCCCc1ccc(/C=C/C(=O)Nc2ccccc2OCC(=O)O)cc1,9000,ID50 [3]: 4.2 mg/kg
CCCOc1ccc(C(=O)Nc2cccc3c2OC(c2nnn[nH]2)CO3)cc1 (stereo unspecified),2200,
CCCCCc1ccc(/C=C/C(=O)Nc2cccc3c(=O)cc(-c4nn[nH]n4)oc23)cc1,30,ID50 [3]: 0.014 mg/kg
CCCCCc1ccc(/C=C/C(=O)Nc2cccc3ccc(-c4nn[nH]n4)nc23)cc1,1000,
C=CCCC/C=C/COc1ccc(C(=O)Nc2cccc3c2OC(c2nnn[nH]2)CO3)cc1 (stereo unspecified),1.1,inhibition in vivo at 10 mg/kg (Cavia porcellus [2]): 2.9%
CCCCCCCCCc1ccc(C(=O)Nc2cccc3c2OC(c2nnn[nH]2)CO3)cc1 (stereo unspecified),160,
CCCC/C=C/COc1ccc(C(=O)Nc2cccc3c2OC(c2nnn[nH]2)CO3)cc1 (stereo unspecified),0.47,ID50 [3]: 0.0055 mg/kg
